Source: US20240228468A1, “N-(6-((OCTAHYDROCYCLOPENTA[C]PYRROL-5-YI)AMINO)PYRIDAZIN-3-YL)PHENYL)CARBOXAMIDE AND (6- ((OCTAHYDROCYCLOPENTA[C]PYRROL-5-YL)AMINO)PYRIDAZIN-3-YL)BENZAMIDE DERIVATIVES AS MACHR M4 ANTAGONISTS FOR THE TREATMENT OF NEURODEGENERATIVE DISORDERS” (Vanderbilt University, priority 2021, published 2024)
pIC50: −log10 of the molar value. Read-outs that look alike come from different tables or passages of the source.

Target: T1, Human M4 (Homo sapiens, UniProt P08173)
T1 construct: expressed in transfected cells; host or cells: CHO-K1 (ATCC), co-transfected with chimeric G protein Gqi5
T1 sequence (P08173 1-479): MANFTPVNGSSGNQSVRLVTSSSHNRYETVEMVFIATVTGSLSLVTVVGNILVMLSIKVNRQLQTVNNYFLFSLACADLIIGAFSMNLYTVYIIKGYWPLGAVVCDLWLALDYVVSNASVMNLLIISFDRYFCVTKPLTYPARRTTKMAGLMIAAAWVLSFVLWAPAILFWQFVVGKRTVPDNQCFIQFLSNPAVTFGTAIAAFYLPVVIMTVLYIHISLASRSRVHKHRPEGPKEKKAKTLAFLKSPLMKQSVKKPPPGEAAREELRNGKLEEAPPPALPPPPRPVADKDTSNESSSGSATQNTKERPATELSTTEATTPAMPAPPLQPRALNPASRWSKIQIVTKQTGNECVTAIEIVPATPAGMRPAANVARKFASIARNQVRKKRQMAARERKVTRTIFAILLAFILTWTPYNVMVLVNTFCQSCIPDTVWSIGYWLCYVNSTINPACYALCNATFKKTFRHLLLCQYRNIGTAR
Test: mAChR M4 cell-based functional assay (calcium flux, antagonism of EC80 acetylcholine response)
Settings: for pIC50: concentration-dependent decrease of the response elicited by an EC80 concentration of acetylcholine
Method: Human or rat M4 cDNA, along with the chimeric G protein Gqi5, were transfected into Chinese hamster ovary (CHO-K1) cells purchased from the American Type Culture Collection using Lipofectamine2000. M4/Gqi5/CHO cells were grown in Ham's F-12 medium containing 10% heat-inactivated fetal bovine serum (FBS), 20 mM HEPES, 500 μg/mL G418 sulfate, and 200 μg/mL Hygromycin B.
For high throughput measurement of agonist-evoked increases in intracellular calcium, CHO-K1 cells stably expressing muscarinic receptors were plated in growth medium lacking G418 and hygromycin at 15,000 cells/20 μL/well in Greiner 384-well black-walled, tissue culture (TC)-treated, clear-bottom plates (VWR). Cells were incubated overnight at 37° C. and 5% CO2. The next day, cells were washed using an ELX 405 (BioTek) with assay buffer; the final volume was then aspirated to 20 μL. Next, 20 μL of a 2.3 μM stock of Fluo-4/acetoxymethyl ester (Invitrogen, Carlsbad, CA), prepared as a 2.3 mM stock in DMSO and mixed in a 1:1 ratio with 10% (w/v) Pluronic F-127 and diluted in assay buffer, was added to the wells and the cell plates were incubated for 50 min at 37° C. and 5% CO2. Dye was removed by washing with the ELX 405 and the final volume was aspirated to 20 μL. Compound master plates were formatted in a 10 point concentration-response curve (CRC) format (1:3 dilutions) in 100% DMSO with a starting concentration of 10 or 1 mM using a BRAVO liquid handler (Agilent). Test compound CRCs were then transferred to daughter plates (240 nL) using the Echo acoustic plate reformatter (Labcyte, Sunnyvale, CA) and then diluted into assay buffer (40 μL) to a 2× stock using a Thermo Fisher Combi (Thermo Fisher Scientific, Waltham, MA).
Calcium flux was measured using the Functional Drug Screening System (FDSS) 6000 or 7000 (Hamamatsu Corporation, Tokyo, Japan) as an increase in the fluorescent static ratio. Compounds were applied to cells (20 μL, 2×) using the automated system of the FDSS at 2 seconds into the protocol and the data were collected at 1 Hz. At 143 s, 10 μL of an EC20 concentration of the muscarinic receptor agonist acetylcholine was added (5×), followed by the addition of 12 μL of an EC80 concentration of acetylcholine at the 268 s time point (5×). Agonist activity was analyzed as a concentration-dependent increase in calcium mobilization upon compound addition. Positive allosteric modulator activity was analyzed as a concentration-dependent increase in the EC20 acetylcholine response. Antagonist activity was analyzed as a concentration-dependent decrease in the EC80 acetylcholine response; for the purposes of the tables herein, an IC50 (inhibitory concentration 50) was calculated as a concentration-dependent decrease of the response elicited by an EC80 concentration of acetylcholine. Concentration-response curves were generated using a four-parameter logistical equation in XLFit curve fitting software (IDBS, Bridgewater, NJ) for Excel (Microsoft, Redmond, WA) or Prism (GraphPad Software, Inc., San Diego, CA) or the Dotmatics software platform (Dotmatics, Bishop's Stortford, UK).
Compounds were synthesized as described above. Activity (IC50 and Emin) was determined in the mAChR M4 cell-based functional assay as described above and the data are shown in Table 2.

[1] = CHO-K1, read-out: Human M4 Emin (% ACh maximum at 30 μM)
[2] = M4/Gqi5/CHO-K1 cells, % ACh maximum at 30 μM, read-out: Human M4 Emin (% ACh maximum at 30 μM)
[3] = M4/Gqi5/CHO-K1 cells, % ACh maximum at 30 μM

Row | Compound | pIC50 (M4/Gqi5/CHO-K1 cells) | remaining activity at 30 µM [2] [%] | Human M4 Emin (% ACh maximum at 30 μM) [3] [%] | remaining activity at 30 µM [1] [%]
1 | [2H]C([2H])(C1CCOCC1)N1C[C@H]2C[C@H](Nc3ccc(-c4cccc(C(=O)NC)c4)nn3)C[C@H]2C1 (single isomer, unassigned) [Compound A42] | 6.40 | – | – | 14
2 | [2H]C([2H])([2H])NC(=O)c1ccc(-c2ccc(N[C@H]3C[C@@H]4CN(C([2H])([2H])C5CCOCC5)C[C@@H]4C3)nn2)cc1 (single isomer, unassigned) [Compound A55] | 8.29 | – | – | 3
3 | CC(=O)Nc1ccc(-c2ccc(N[C@H]3C[C@@H]4CN(Cc5ccccc5F)C[C@@H]4C3)nn2)cc1 [Compound A1, N-(4-(6-(((3aR,5s,6aS)-2-(2-fluorobenzyl)octahydrocyclopenta[c]pyrrol-5-yl)amino)pyridazin-3-yl)phenyl)acetamide] | 7.21 | 4 | – | –
4 | CC(=O)Nc1ccc(-c2ccc(N[C@H]3C[C@@H]4CN(Cc5ccc(F)cc5)C[C@@H]4C3)nn2)cc1 [Compound A3, N-(4-(6-(((3aR,5s,6aS)-2-(4-fluorobenzyl)octahydrocyclopenta[c]pyrrol-5-yl)amino)pyridazin-3-yl)phenyl)acetamide] | 8.00 | 2 | – | –
5 | CC(=O)Nc1ccc(-c2ccc(N[C@H]3C[C@@H]4CN(Cc5ccc6c(c5)OCO6)C[C@@H]4C3)nn2)cc1 [Compound A4, N-(4-(6-(((3aR,5s,6aS)-2-(benzo[d][1,3]dioxol-5-ylmethyl)octahydrocyclopenta[c]pyrrol-5-yl)amino)pyridazin-3-yl)phenyl)acetamide] | 9.72 | 3 | – | –
6 | CC(=O)Nc1ccc(-c2ccc(N[C@H]3C[C@@H]4CN(Cc5cc(C)n(C)n5)C[C@@H]4C3)nn2)cc1 [Compound A5, N-(4-(6-(((3aR,5s,6aS)-2-((1,5-dimethyl-1H-pyrazol-3-yl)methyl)octahydrocyclopenta[c]pyrrol-5-yl)amino)pyridazin-3-yl)phenyl)acetamide] | 5.64 | 10 | – | –
7 | CC(=O)Nc1ccc(-c2ccc(N[C@H]3C[C@@H]4CN(Cc5ccccc5C(F)(F)F)C[C@@H]4C3)nn2)cc1 [Compound A7, N-(4-(6-(((3aR,5s,6aS)-2-(2-(trifluoromethyl)benzyl)octahydrocyclopenta [c]pyrrol-5-yl)amino)pyridazin-3-yl)phenyl)acetamide] | 5.96 | 10 | – | –
8 | CC(=O)Nc1ccc(-c2ccc(N[C@H]3C[C@@H]4CN(Cc5ccccn5)C[C@@H]4C3)nn2)cc1 [Compound A8, N-(4-(6-(((3aR,5s,6aS)-2-(Pyridin-2-ylmethyl)octahydrocyclopenta[c]pyrrol-5-yl)amino)pyridazin-3-yl)phenyl)acetamide] | 7.37 | – | – | 5
9 | O=C(c1cc(F)c(F)c(-c2ccc(N[C@H]3C[C@@H]4CN(CC5CCOCC5)C[C@@H]4C3)nn2)c1)N1CCOCC1 [Compound A10, (3,4-difluoro-5-(6-(((3aR,5s,6aS)-2-((tetrahydro-2H-pyran-4-yl)methyl)octahydrocyclopenta[c]pyrrol-5-yl)amino)pyridazin-3-yl)phenyl)(morpholino)methanone] | 7.09 | 3 | – | –

Continued, in another order:

Row | pIC50 (M4/Gqi5/CHO-K1 cells) | remaining activity at 30 µM [2] [%] | Human M4 Emin (% ACh maximum at 30 μM) [3] [%] | Compound | remaining activity at 30 µM [1] [%]
10 | 8.00 | 4 | – | [2H]C([2H])([2H])NC(=O)c1cccc(-c2ccc(N[C@H]3C[C@@H]4CN(CC5CCOCC5)C[C@@H]4C3)nn2)c1 (single isomer, unassigned) [Compound A47] | –
11 | 8.26 | 3 | – | [2H]C([2H])([2H])NC(=O)c1cccc(-c2ccc(N[C@H]3C[C@@H]4CN(C([2H])([2H])C5CCOCC5)C[C@@H]4C3)nn2)c1 (single isomer, unassigned) [Compound A49] | –
12 | 8.00 | 3 | – | [2H]C([2H])([2H])NC(=O)c1ccc(-c2ccc(N[C@H]3C[C@@H]4CN(CC5CCOCC5)C[C@@H]4C3)nn2)cc1 (single isomer, unassigned) [Compound A54] | –
13 | 7.80 | 5 | – | [2H]C([2H])(C1CCOCC1)N1C[C@H]2C[C@H](Nc3ccc(-c4ccc(C(=O)NC)cc4)nn3)C[C@H]2C1 (single isomer, unassigned) [Compound A64] | –
14 | 7.40 | 4 | – | [2H]C1([2H])CC(C([2H])([2H])N2C[C@H]3C[C@H](Nc4ccc(-c5cccc(C(=O)NC)c5)nn4)C[C@H]3C2)CC([2H])([2H])O1 (single isomer, unassigned) [Compound A74] | –
15 | 9.40 | – | 4 | [2H]C([2H])(C1CCOCC1)N1C[C@H]2C[C@H](Nc3ccc(-c4ccc(NC(C)=O)cc4)nn3)C[C@H]2C1 (single isomer, unassigned) [Compound B1] | –
16 | 8.62 | – | 3 | [2H]C([2H])([2H])C(=O)Nc1ccc(-c2ccc(N[C@H]3C[C@@H]4CN(CC5CCOCC5)C[C@@H]4C3)nn2)cc1 (single isomer, unassigned) [Compound B5] | –
17 | 8.92 | – | 3 | [2H]C([2H])([2H])C(=O)Nc1ccc(-c2ccc(N[C@H]3C[C@@H]4CN(C([2H])([2H])C5CCOCC5)C[C@@H]4C3)nn2)cc1 (single isomer, unassigned) [Compound B6] | –
18 | 7.29 | 4 | – | CC(=O)Nc1ccc(-c2ccc(N[C@H]3C[C@@H]4CN(Cc5cccc(F)c5)C[C@@H]4C3)nn2)cc1 [Compound A2, N-(4-(6-(((3aR,5s,6aS)-2-(3-fluorobenzyl)octahydrocyclopenta[c]pyrrol-5-yl)amino)pyridazin-3-yl)phenyl)acetamide] | –
19 | 5.34 | 16 | – | CC(=O)Nc1ccc(-c2ccc(N[C@H]3C[C@@H]4CN(CC5(C)COC5)C[C@@H]4C3)nn2)cc1 [Compound A6, N-(4-(6-(((3aR,5s,6aS)-2-((3-methyloxetan-3-yl)methyl)octahydrocyclopenta[c]pyrrol-5-yl)amino)pyridazin-3-yl)phenyl)acetamide] | –
20 | 6.36 | 5 | – | CN(C)C(=O)c1cc(F)c(F)c(-c2ccc(N[C@H]3C[C@@H]4CN(CC5CCOCC5)C[C@@H]4C3)nn2)c1 [Compound A9, 3,4-difluoro-N,N-dimethyl-5-(6-(((3aR,5s,6aS)-2-((tetrahydro-2H-pyran-4-yl)methyl)octahydrocyclopenta[c]pyrrol-5-yl)amino)pyridazin-3-yl)benzamide] | –
